According to PubChem BioAssay (NCI):
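Five concentrations, 48 hours, 96-well plates. The concentration for 50% growth inhibition is given as GI50. TGI marks complete inhibition of growth.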

Key:
Test in all cases: NCI anticancer screen, dose series, 48 h
[1] = tested on: OVCAR-3 ovarian
[2] = tested on: IGROV1 ovarian
[3] = tested on: HS 578T breast
[4] = tested on: COLO 205 colon
[5] = tested on: HCT-15 colon
[6] = tested on: PC-3 prostate
[7] = tested on: NCI-H226 lung
[8] = tested on: DU-145 prostate
[9] = tested on: NCI-H460 lung
[10] = tested on: CAKI-1 renal
[11] = tested on: HCT-116 colon
[12] = tested on: U251 CNS
[13] = tested on: BT-549 breast
[14] = tested on: SNB-75 CNS
[15] = tested on: SNB-19 CNS
[16] = tested on: HT29 colon
[17] = tested on: 786-0 renal
[18] = tested on: MDA-MB-231 breast
[19] = tested on: HOP-92 NSCLC
[20] = tested on: MALME-3M melanoma
[21] = tested on: SW-620 colon
[22] = tested on: KM12 colon
[23] = tested on: SK-MEL-28 melanoma
[24] = tested on: HOP-62 NSCLC
[25] = tested on: UO-31 renal
[26] = tested on: SF-539 CNS
[27] = tested on: MCF7 breast
[28] = tested on: SR leukemia
[29] = tested on: CCRF-CEM leukemia
[30] = tested on: HL-60(TB) leukemia
[31] = tested on: EKVX NSCLC
[32] = tested on: SK-MEL-5 melanoma
[33] = tested on: OVCAR-5 ovarian
[34] = tested on: A498 renal
[35] = tested on: RXF 393 renal
[36] = tested on: A549 NSCLC
[37] = tested on: UACC-257 melanoma
[38] = tested on: NCI-H522 lung
[39] = tested on: SK-OV-3 ovarian
[40] = tested on: NCI/ADR-RES ovarian
[41] = tested on: SN12C renal
[42] = tested on: NCI-H23 lung
[43] = tested on: T-47D breast
[44] = tested on: M14 melanoma
[45] = tested on: SK-MEL-2 melanoma
[46] = tested on: UACC-62 melanoma
[47] = tested on: ACHN renal
[48] = tested on: SF-295 CNS
[49] = tested on: TK-10 renal
[50] = tested on: MDA-MB-435
[51] = tested on: LOX IMVI melanoma
[52] = tested on: MOLT-4 leukemia
[53] = tested on: RPMI-8226 leukemia
[54] = tested on: HCC-2998 colon
[55] = tested on: OVCAR-8 ovarian
[56] = tested on: K-562 leukemia
[57] = tested on: SF-268 CNS
[58] = tested on: OVCAR-4 ovarian

With `Cc1cc(Nc2cc(N3CCN(C)CC3)nc(/C=C/c3ccccc3)n2)n[nH]1` the GI50 [1] was 1.2 µM, the TGI [1] was > 10 µM and the GI50 [2] was 0.0542 µM. The TGI [2] was 1.62 µM, the GI50 [3] was 0.517 µM and the TGI [3] was 1.86 µM. The GI50 [4] was 0.44 µM, the TGI [4] was > 2.03 µM and the GI50 [5] was 0.326 µM. The TGI [5] was > 10 µM, the GI50 [6] was 0.794 µM and the TGI [6] was > 6.61 µM. The GI50 [7] was 1.29 µM, the TGI [7] was > 9.46 µM and the GI50 [8] was 1.04 µM. The TGI [8] was > 10 µM, the GI50 [9] was 0.29 µM and the TGI [9] was > 5.52 µM. The GI50 [10] was 0.223 µM, the TGI [10] was > 5.38 µM and the GI50 [11] was 0.201 µM. For the same compound, the TGI [11] was > 10 µM, the GI50 [12] was 0.883 µM and the TGI [12] was > 6.76 µM. For the same compound, the GI50 [13] was 1.12 µM, the TGI [13] was > 8.73 µM and the GI50 [14] was 0.391 µM. For the same compound, the TGI [14] was 2.12 µM, the GI50 [15] was 1.49 µM and the TGI [15] was > 10 µM. For the same compound, the GI50 [16] was 0.542 µM, the TGI [16] was > 6.77 µM and the GI50 [17] was 0.789 µM. For the same compound, the TGI [17] was > 6.25 µM, the GI50 [18] was 0.966 µM and the TGI [18] was 9.95 µM. The GI50 [19] was 0.476 µM, the TGI [19] was 1.95 µM and the GI50 [20] was 0.796 µM. For the same compound, the TGI [20] was > 4.77 µM, the GI50 [21] was 0.294 µM and the TGI [21] was > 10 µM. The GI50 [22] was 0.0426 µM, the TGI [22] was > 3.84 µM and the GI50 [23] was 1.41 µM. For the same compound, the TGI [23] was > 5.48 µM, the GI50 [24] was 0.768 µM and the TGI [24] was > 3.98 µM. It also gave a GI50 [25] of 0.263 µM, a TGI [25] of 2.7 µM and a GI50 [26] of 0.718 µM. For the same compound, the TGI [26] was 2.05 µM, the GI50 [27] was 0.235 µM and the TGI [27] was > 7.88 µM. The GI50 [28] was 0.103 µM, the TGI [28] was 2.19 µM and the GI50 [29] was 0.412 µM. The TGI [29] was > 10 µM, the GI50 [30] was 0.32 µM and the TGI [30] was 2.57 µM. For the same compound, the GI50 [31] was 1.21 µM, the TGI [31] was > 7.24 µM and the GI50 [32] was > 2.11 µM. For the same compound, the TGI [32] was > 4.15 µM, the GI50 [33] was 0.866 µM and the TGI [33] was > 9.04 µM. The GI50 [34] was 0.389 µM, the TGI [34] was 1.66 µM and the GI50 [35] was 0.246 µM. The TGI [35] was 1.04 µM, the GI50 [36] was 0.501 µM and the TGI [36] was > 10 µM. The GI50 [37] was 1.98 µM, the TGI [37] was > 5.32 µM and the GI50 [38] was 0.336 µM. For the same compound, the TGI [38] was > 2.19 µM, the GI50 [39] was 1.35 µM and the TGI [39] was > 10 µM. For the same compound, the GI50 [40] was 2.03 µM, the TGI [40] was > 10 µM and the GI50 [41] was 0.62 µM. The TGI [41] was > 10 µM, the GI50 [42] was 1.14 µM and the TGI [42] was > 5.23 µM. For the same compound, the GI50 [43] was 1.77 µM, the TGI [43] was > 9.46 µM and the GI50 [44] was 0.343 µM. The TGI [44] was > 3.81 µM, the GI50 [45] was 0.702 µM and the TGI [45] was > 2.39 µM. For the same compound, the GI50 [46] was 1.07 µM, the TGI [46] was > 3.51 µM and the GI50 [47] was 0.205 µM. For the same compound, the TGI [47] was 3.92 µM, the GI50 [48] was 0.707 µM and the TGI [48] was > 4.64 µM. For the same compound, the GI50 [49] was 0.797 µM, the TGI [49] was > 5.11 µM and the GI50 [50] was 0.406 µM. The TGI [50] was > 5.28 µM, the GI50 [51] was 0.334 µM and the TGI [51] was 1.51 µM. For the same compound, the GI50 [52] was 0.186 µM, the TGI [52] was > 10 µM and the GI50 [53] was 1.69 µM. For the same compound, the TGI [53] was > 3.14 µM, the GI50 [54] was 0.839 µM and the TGI [54] was 4.42 µM. For the same compound, the GI50 [55] was 1.68 µM, the TGI [55] was > 10 µM and the GI50 [56] was 0.644 µM. For the same compound, the TGI [56] was > 10 µM, the GI50 [57] was 0.845 µM and the TGI [57] was > 4.08 µM. For the same compound, the GI50 [58] was 0.644 µM and the TGI [58] was > 10 µM.
`CCOc1ccn(-c2ccc(F)cc2)c(=O)c1C(=O)Nc1ccc(Oc2ccnc(N)c2Cl)c(F)c1` was tested, and the GI50 [1] was 24.3 µM, the TGI [1] was > 100 µM and the GI50 [2] was 17.3 µM. The TGI [2] was > 100 µM, the GI50 [3] was 3.7 µM and the TGI [3] was 30.6 µM. For the same compound, the GI50 [4] was 2.54 µM, the TGI [4] was 5.57 µM and the GI50 [5] was 10.6 µM. For the same compound, the TGI [5] was > 79.6 µM, the GI50 [6] was 9.02 µM and the TGI [6] was > 100 µM. For the same compound, the GI50 [7] was 10.6 µM, the TGI [7] was > 96.1 µM and the GI50 [8] was 21.1 µM. For the same compound, the TGI [8] was > 100 µM, the GI50 [9] was 4.74 µM and the TGI [9] was > 87 µM. The GI50 [10] was 7.57 µM, the TGI [10] was 56.4 µM and the GI50 [11] was 5.35 µM. The TGI [11] was 21.8 µM, the GI50 [12] was 26 µM and the TGI [12] was > 100 µM. For the same compound, the GI50 [13] was 13.8 µM, the TGI [13] was 59.2 µM and the GI50 [14] was 2.39 µM. For the same compound, the TGI [14] was 22.5 µM, the GI50 [15] was 27.8 µM and the TGI [15] was > 100 µM. It also gave a GI50 [16] of 6.63 µM, a TGI [16] of 82.3 µM and a GI50 [17] of 19 µM. The TGI [17] was > 100 µM, the GI50 [18] was 6.33 µM and the TGI [18] was 23.9 µM. The GI50 [19] was 0.801 µM, the TGI [19] was 12.3 µM and the GI50 [20] was 7.72 µM. For the same compound, the TGI [20] was 46.4 µM, the GI50 [21] was 5.01 µM and the TGI [21] was 38.4 µM. For the same compound, the GI50 [22] was 0.404 µM, the TGI [22] was > 100 µM and the GI50 [23] was 6.7 µM. For the same compound, the TGI [23] was 59.1 µM, the GI50 [24] was 13.2 µM and the TGI [24] was > 100 µM. The GI50 [25] was 8.99 µM, the TGI [25] was 63.4 µM and the GI50 [26] was 7.53 µM. The TGI [26] was 34.1 µM, the GI50 [27] was 7.89 µM and the TGI [27] was > 100 µM. For the same compound, the GI50 [28] was 6.17 µM, the TGI [28] was 28.7 µM and the GI50 [29] was 3.63 µM. It also gave a TGI [29] of 36.9 µM, a GI50 [30] of 15.3 µM and a TGI [30] of 38.6 µM. The GI50 [31] was 31.3 µM, the TGI [31] was > 100 µM and the GI50 [32] was 9.99 µM. For the same compound, the TGI [32] was 25.5 µM, the GI50 [33] was 12.9 µM and the TGI [33] was 67 µM. For the same compound, the GI50 [34] was 1.6 µM, the TGI [34] was 12.2 µM and the GI50 [35] was 7.06 µM. For the same compound, the TGI [35] was 36.8 µM, the GI50 [36] was 9.12 µM and the TGI [36] was 86.2 µM. It also gave a GI50 [37] of 5.99 µM, a TGI [37] of 43.4 µM and a GI50 [38] of 12.3 µM. It also gave a TGI [38] of 69.5 µM, a GI50 [39] of 11.7 µM and a TGI [39] of 41.6 µM. For the same compound, the GI50 [40] was 13.6 µM, the TGI [40] was > 65.7 µM and the GI50 [41] was 5.03 µM. The TGI [41] was > 100 µM, the GI50 [42] was 10.4 µM and the TGI [42] was > 100 µM. The GI50 [43] was 11.8 µM, the TGI [43] was 98 µM and the GI50 [44] was 3.74 µM. The TGI [44] was 16 µM, the GI50 [45] was 14 µM and the TGI [45] was 35.7 µM. The GI50 [46] was 2.83 µM, the TGI [46] was 18.5 µM and the GI50 [47] was 9.22 µM. For the same compound, the TGI [47] was > 89.1 µM, the GI50 [48] was 0.787 µM and the TGI [48] was 48.3 µM. The GI50 [49] was 15.1 µM, the TGI [49] was 55.2 µM and the GI50 [50] was 6.27 µM. It also gave a TGI [50] of 42.6 µM, a GI50 [51] of 5.33 µM and a TGI [51] of 19.3 µM. It also gave a GI50 [52] of 5.78 µM, a TGI [52] of 59 µM and a GI50 [53] of 14.6 µM. For the same compound, the TGI [53] was > 88.8 µM, the GI50 [54] was 38.5 µM and the TGI [54] was > 100 µM. The GI50 [55] was 15.2 µM, the TGI [55] was > 100 µM and the GI50 [56] was 4.42 µM. For the same compound, the TGI [56] was > 100 µM, the GI50 [57] was 10.9 µM and the TGI [57] was > 100 µM. For the same compound, the GI50 [58] was 19.1 µM and the TGI [58] was > 100 µM.
